Converted amounts (≈) assume the structure as drawn.
Legend:
Type in all cases: cell-based
S. aureus MP-12 = test: microbe, parasite or virus in culture; conditions: Staphylococcus aureus, MP12, read-out: MIC S. aureus MP-12
E. coli MP-4 = test: MIC determination by CLSI broth dilution, E. coli MP-4; conditions: Escherichia coli, MP4, CLSI broth dilution; strain MP-4
K. pneumoniae MP-546 = test: MIC determination by CLSI broth dilution, K. pneumoniae MP-546; conditions: Klebsiella pneumoniae, MP546, CLSI broth dilution; strain MP-546
K. pneumoniae MP-648 = test: MIC determination by CLSI broth dilution, K. pneumoniae MP-648; conditions: Klebsiella pneumoniae, MP648, CLSI broth dilution; strain MP-648
P. aeruginosa MP-3 = test: MIC determination by CLSI broth dilution, P. aeruginosa MP-3; conditions: Pseudomonas aeruginosa, MP3, strain MP-3
A. baumannii MP-15 = test: MIC determination by CLSI broth dilution, A. baumannii MP-15; conditions: Acinetobacter baumannii, MP15, strain MP-15, read-out: MIC A. baumanii MP-15

| SMILES | MIC (S. aureus MP-12) [µg/mL] | MIC (E. coli MP-4) [µg/mL] | MIC (K. pneumoniae MP-546) [µg/mL] | MIC (K. pneumoniae MP-648) [µg/mL] | MIC (P. aeruginosa MP-3) [µg/mL] | MIC (A. baumannii MP-15) [µg/mL] |
| --- | --- | --- | --- | --- | --- | --- |
| CCN1C[C@H](C)C[C@@](C)(OC)[C@H](O[C@@H]2O[C@H](C)C[C@H](N(C)C)[C@H]2O)[C@@H](C)C(=O)C(C)(C)C(=O)OC[C@H]1CC1CCN(C)CC1 [Compound 98, (3R,6R,8R,9R,10R)-9-(((2S,3R,4S,6R)-4-(dimethylamino)-3-hydroxy-6-methyltetrahydro-2H-pyran-2-yl)oxy)-4-ethyl-8-methoxy-6,8,10,12,12-pentamethyl-3-((1-methylpiperidin-4-yl)methyl)-1-oxa-4-azacyclotridecane-11,13-dione] | 4 to 32 (≈ 6.39 to 51.1 µM) | < 4 | < 4 | < 4 | > 32 | > 32 |
| CO[C@]1(C)C[C@@H](C)CN(C)[C@@H](CCCN(C)C2CCCC2)COC(=O)C(C)(C)C(=O)[C@H](C)[C@H]1O[C@@H]1O[C@H](C)C[C@H](N(C)C)[C@H]1O [Compound 99, (3S,6R,8R,9R,10R)-3-(3-(cyclopentyl(methyl)amino)propyl)-9-(((2S,3R,4S,6R)-4-(dimethylamino)-3-hydroxy-6-methyltetrahydro-2H-pyran-2-yl)oxy)-8-methoxy-4,6,8,10,12,12-hexamethyl-1-oxa-4-azacyclotridecane-11,13-dione] | 4 to 32 (≈ 6.25 to 50 µM) | < 4 | < 4 | < 4 | > 32 | > 32 |
| CCCN1CCC(C[C@@H]2COC(=O)C(C)(C)C(=O)[C@H](C)[C@@H](O[C@@H]3O[C@H](C)C[C@H](N(C)C)[C@H]3O)[C@](C)(OC)C[C@@H](C)CN2CC)CC1 [Compound 102, (3R,6R,8R,9R,10R)-9-(((2S,3R,4S,6R)-4-(dimethylamino)-3-hydroxy-6-methyltetrahydro-2H-pyran-2-yl)oxy)-4-ethyl-8-methoxy-6,8,10,12,12-pentamethyl-3-((1-propylpiperidin-4-yl)methyl)-1-oxa-4-azacyclotridecane-11,13-dione] | 4 to 32 (≈ 6.12 to 48.9 µM) | < 4 | < 4 | < 4 | > 32 | 4 to 32 (≈ 6.12 to 48.9 µM) |
| CO[C@]1(C)C[C@@H](C)CN(C)[C@@H](CCCN2CCC(F)CC2)COC(=O)C(C)(C)C(=O)[C@H](C)[C@H]1O[C@@H]1O[C@H](C)C[C@H](N(C)C)[C@H]1O [Compound 103, (3S,6R,8R,9R,10R)-9-(((2S,3R,4S,6R)-4-(dimethylamino)-3-hydroxy-6-methyltetrahydro-2H-pyran-2-yl)oxy)-3-(3-(4-fluoropiperidin-1-yl)propyl)-8-methoxy-4,6,8,10,12,12-hexamethyl-1-oxa-4-azacyclotridecane-11,13-dione] | 4 to 32 (≈ 6.21 to 49.7 µM) | < 4 | < 4 | < 4 | > 32 | > 32 |
| CO[C@]1(C)C[C@@H](C)CN(C)[C@@H](CCCN2CCOCC2)COC(=O)C(C)(C)C(=O)[C@H](C)[C@H]1O[C@@H]1O[C@H](C)C[C@H](N(C)C)[C@H]1O [Compound 105, (3S,6R,8R,9R,10R)-9-(((2S,3R,4S,6R)-4-(dimethylamino)-3-hydroxy-6-methyltetrahydro-2H-pyran-2-yl)oxy)-8-methoxy-4,6,8,10,12,12-hexamethyl-3-(3-morpholinopropyl)-1-oxa-4-azacyclotridecane-11,13-dione] | 4 to 32 (≈ 6.37 to 51 µM) | < 4 | 4 to 32 (≈ 6.37 to 51 µM) | 4 to 32 (≈ 6.37 to 51 µM) | > 32 | > 32 |
| CO[C@]1(C)C[C@@H](C)CN(C)[C@@H](CCCN2CCCC2)COC(=O)C(C)(C)C(=O)[C@H](C)[C@H]1O[C@@H]1O[C@H](C)C[C@H](N(C)C)[C@H]1O [Compound 107, (3S,6R,8R,9R,10R)-9-(((2S,3R,4S,6R)-4-(dimethylamino)-3-hydroxy-6-methyltetrahydro-2H-pyran-2-yl)oxy)-8-methoxy-4,6,8,10,12,12-hexamethyl-3-(3-(pyrrolidin-1-yl)propyl)-1-oxa-4-azacyclotridecane-11,13-dione] | 4 to 32 (≈ 6.54 to 52.3 µM) | < 4 | < 4 | < 4 | > 32 | > 32 |
| CO[C@]1(C)C[C@@H](C)CN(C)[C@@H](CCCN2CC[C@@H](F)C2)COC(=O)C(C)(C)C(=O)[C@H](C)[C@H]1O[C@@H]1O[C@H](C)C[C@H](N(C)C)[C@H]1O [Compound 108, (3S,6R,8R,9R,10R)-9-(((2S,3R,4S,6R)-4-(dimethylamino)-3-hydroxy-6-methyltetrahydro-2H-pyran-2-yl)oxy)-3-(3-((R)-3-fluoropyrrolidin-1-yl)propyl)-8-methoxy-4,6,8,10,12,12-hexamethyl-1-oxa-4-azacyclotridecane-11,13-dione] | 4 to 32 (≈ 6.35 to 50.8 µM) | < 4 | < 4 | < 4 | > 32 | > 32 |
| CO[C@]1(C)C[C@@H](C)CN(C)[C@@H](CCCN2CCC(F)(F)CC2)COC(=O)C(C)(C)C(=O)[C@H](C)[C@H]1O[C@@H]1O[C@H](C)C[C@H](N(C)C)[C@H]1O [Compound 110, (3S,6R,8R,9R,10R)-3-(3-(4,4-difluoropiperidin-1-yl)propyl)-9-(((2S,3R,4S,6R)-4-(dimethylamino)-3-hydroxy-6-methyltetrahydro-2H-pyran-2-yl)oxy)-8-methoxy-4,6,8,10,12,12-hexamethyl-1-oxa-4-azacyclotridecane-11,13-dione] | 4 to 32 (≈ 6.04 to 48.3 µM) | < 4 | 4 to 32 (≈ 6.04 to 48.3 µM) | 4 to 32 (≈ 6.04 to 48.3 µM) | > 32 | > 32 |
| CO[C@]1(C)C[C@@H](C)CN(C)[C@H](C[C@H]2C[C@H](N(C)C)C2)COC(=O)C(C)(C)C(=O)[C@H](C)[C@H]1O[C@@H]1O[C@H](C)C[C@H](N(C)C)[C@H]1O [Compound 111, (3R,6R,8R,9R,10R)-9-(((2S,3R,4S,6R)-4-(Dimethylamino)-3-hydroxy-6-methyltetrahydro-2H-pyran-2-yl)oxy)-3-(((1r,3S)-3-(dimethylamino)cyclobutyl)methyl)-8-methoxy-4,6,8,10,12,12-hexamethyl-1-oxa-4-azacyclotridecane-11,13-dione] | 4 to 32 (≈ 6.54 to 52.3 µM) | < 4 | < 4 | < 4 | > 32 | > 32 |
| CO[C@]1(C)C[C@@H](C)CN(C)[C@@H](CCCN2Cc3ccccc3C2)COC(=O)C(C)(C)C(=O)[C@H](C)[C@H]1O[C@@H]1O[C@H](C)C[C@H](N(C)C)[C@H]1O [Compound 112] | < 4 | < 4 | < 4 | < 4 | > 32 | 4 to 32 (≈ 6.06 to 48.5 µM) |
| CCN1C[C@H](C)C[C@@](C)(OC)[C@H](O[C@@H]2O[C@H](C)C[C@H](N(C)C)[C@H]2O)[C@@H](C)C(=O)C(C)(C)C(=O)OC[C@H]1CCCN1CCCC1 [Compound 113, (3R,6R,8R,9R,10R)-9-(((2S,3R,4S,6R)-4-(dimethylamino)-3-hydroxy-6-methyltetrahydro-2H-pyran-2-yl)oxy)-4-ethyl-8-methoxy-6,8,10,12,12-pentamethyl-3-(3-(pyrrolidin-1-yl)propyl)-1-oxa-4-azacyclotridecane-11,13-dione] | < 4 | < 4 | < 4 | < 4 | > 32 | > 32 |
